Laboratory results published in ChEMBL document CHEMBL4422618, “Translational impact of novel widely pharmacological characterized mofezolac-derived COX-1 inhibitors combined with bortezomib on human multiple myeloma cell lines viability” (Eur J Med Chem, 2019).
The source made the active and inactive calls. The calls are words filed in the database; no cut-off is given here.

Tests used:
RPMI-8226 [1] = assay: Cell cycle arrest in human RPMI8226 cells assessed as accumulation at S phase at […] after 48 hrs by propidium iodide/RNase staining based flow cytometric method; type: functional
NCI-H929 [2] = assay: Potentiation of bortezomib-induced cytotoxicity against human NCI-H929 cells assessed as reduction in cell viability at […] after 48 hrs in presence of bortezomib by CCK8 assay; type: functional, cell-based
NCI-H929 [3] = assay: Induction of apoptosis in human NCI-H929 cells assessed as viable cells at […] after 48 hrs in presence of bortezomib by Annexin-V/propidium iodide staining based flow cytometric method (reference value: 82.6%); type: functional; details: NCI-H929, 48 h, read-out: Activity
NCI-H929 [4] = assay: Induction of apoptosis in human NCI-H929 cells assessed as early apoptotic cells at […] after 48 hrs by Annexin-V/propidium iodide staining based flow cytometric method (reference value: 17.1%); type: functional
NCI-H929 [5] = assay: Cell cycle arrest in human NCI-H929 cells assessed as accumulation at G0/G1 phase at […] in presence of bortezomib after 48 hrs by propidium iodide/RNase staining based flow cytometric method relative to bortezomib alone; type: functional
RPMI-8226 [6] = assay: Induction of apoptosis in human RPMI8226 cells assessed as late apoptotic cells at […] after 48 hrs in presence of bortezomib by Annexin-V/propidium iodide staining based flow cytometric method (reference value: 0.21%); type: functional
[7] = Mutagenicity in Salmonella typhimurium TA98 at 500 uM by Ames test; type: toxicity; details: salmonella enterica subsp. enterica serovar typhimurium
RPMI-8226 [8] = assay: Cytotoxicity against human RPMI8226 cells assessed as reduction in cell viability at 42 nM after 48 hrs by CCK8 assay relative to control; type: functional
[9] = Mutagenicity in Salmonella typhimurium TA97 at 500 uM by Ames test; type: toxicity; details: salmonella enterica subsp. enterica serovar typhimurium
RPMI-8226 [10] = assay: Induction of apoptosis in human RPMI8226 cells assessed as early apoptotic cells at […] after 48 hrs in presence of bortezomib by Annexin-V/propidium iodide staining based flow cytometric method (reference value: 1.05%); type: functional
[11] = Mutagenicity in Salmonella typhimurium TA100 at 500 uM by Ames test; type: toxicity; details: salmonella enterica subsp. enterica serovar typhimurium
[12] = Hemolytic activity in erythrocytes (unknown origin) at 100 uM after 3 hrs by spectrophotometric analysis; type: ADME, cell-based, Erythrocyte; details: read-out: Activity
RPMI-8226 [13] = assay: Cell cycle arrest in human RPMI8226 cells assessed as accumulation at S phase at […] in presence of bortezomib after 48 hrs by propidium iodide/RNase staining based flow cytometric method relative to bortezomib; type: functional
Platelet = assay: Antiplatelet activity in human platelet rich plasma assessed as inhibition of arachidonic acid-induced platelet aggregation preincubated for 2 mins followed by arachidonic acid addition by turbidimetric method; type: functional, cell-based
[14] = Genotoxicity in Escherichia coli PQ37 at 500 uM after overnight incubation by SOS chromotest; type: toxicity
RPMI-8226 [15] = assay: Potentiation of bortezomib-induced cytotoxicity against human RPMI8226 cells assessed as reduction in cell viability at […] after 48 hrs in presence of bortezomib by CCK8 assay; type: functional
NCI-H929 [16] = assay: Induction of apoptosis in human NCI-H929 cells assessed as necrotic cells at […] after 48 hrs by Annexin-V/propidium iodide staining based flow cytometric method (reference value: 0.0034%); type: functional
NCI-H929 [17] = assay: Induction of apoptosis in human NCI-H929 cells assessed as viable cells at […] after 48 hrs by Annexin-V/propidium iodide staining based flow cytometric method (reference value: 82.6%); type: functional; details: NCI-H929, 48 h, read-out: Activity
NCI-H929 [18] = assay: Induction of apoptosis in human NCI-H929 cells assessed as early apoptotic cells at […] after 48 hrs in presence of bortezomib by Annexin-V/propidium iodide staining based flow cytometric method (reference value: 17.1%); type: functional
Plasma [19] = assay: Anticoagulant activity in human platelet poor plasma assessed as prothrombin time at 100 uM incubated for 15 mins at room temperature and subsequent incubation for 2 mins at 37 degreeC followed by PBS addition and measured after 3 mins for every secs in presence of calcium thromboplastin; type: functional
NCI-H929 [20] = assay: Induction of apoptosis in human NCI-H929 cells assessed as late apoptotic cells at […] after 48 hrs in presence of bortezomib by Annexin-V/propidium iodide staining based flow cytometric method (reference value: 0.23%); type: functional
NCI-H929 [21] = assay: Cell cycle arrest in human NCI-H929 cells assessed as accumulation at S phase at […] in presence of bortezomib after 48 hrs by propidium iodide/RNase staining based flow cytometric method relative to bortezomib alone; type: functional
NCI-H929 [22] = assay: Induction of apoptosis in human NCI-H929 cells assessed as late apoptotic cells at […] after 48 hrs by Annexin-V/propidium iodide staining based flow cytometric method (reference value: 0.23%); type: functional
Plasma [23] = assay: Anticoagulant activity in human platelet poor plasma assessed as activated partial thromboplastin time at 100 uM incubated for 15 mins at room temperature and subsequent incubation for 2 mins at 37 degreeC followed by cephalin addition and measured after 2 mins for every secs in presence of CaCl2; type: functional
RPMI-8226 [24] = assay: Cell cycle arrest in human RPMI8226 cells assessed as accumulation at G0/G1 phase at […] after 48 hrs by propidium iodide/RNase staining based flow cytometric method; type: functional
NCI-H929 [25] = assay: Induction of apoptosis in human NCI-H929 cells assessed as necrotic cells at […] after 48 hrs in presence of bortezomib by Annexin-V/propidium iodide staining based flow cytometric method (reference value: 0.0034%); type: functional
RPMI-8226 [26] = assay: Cell cycle arrest in human RPMI8226 cells assessed as reduction in accumulation at G2/M phase at […] in presence of bortezomib after 48 hrs by propidium iodide/RNase staining based flow cytometric method relative to bortezomib; type: functional
RPMI-8226 [27] = assay: Cell cycle arrest in human RPMI8226 cells assessed as accumulation at G0/G1 phase at […] in presence of bortezomib after 48 hrs by propidium iodide/RNase staining based flow cytometric method relative to bortezomib; type: functional
NCI-H929 [28] = assay: Cytotoxicity against human NCI-H929 cells assessed as reduction in cell viability at […] after 48 hrs by CCK8 assay; type: functional, cell-based
[29] = Genotoxicity in Escherichia coli PQ35 at 500 uM after overnight incubation by SOS chromotest; type: toxicity
RPMI-8226 [30] = assay: Induction of apoptosis in human RPMI8226 cells assessed as viable cells at […] after 48 hrs in presence of bortezomib by Annexin-V/propidium iodide staining based flow cytometric method (reference value: 98.7%); type: functional; details: RPMI-8226, 48 h, read-out: Activity
RPMI-8226 [31] = assay: Induction of apoptosis in human RPMI8226 cells assessed as necrotic cells at […] after 48 hrs in presence of bortezomib by Annexin-V/propidium iodide staining based flow cytometric method (reference value: 0.090%); type: functional
[32] = Mutagenicity in Salmonella typhimurium TA102 at 500 uM by Ames test; type: toxicity; details: salmonella enterica subsp. enterica serovar typhimurium

With `COc1ccc(-c2noc(CC(=O)O)c2-c2ccc(OC)cc2)cc1` [MOFEZOLAC] the Activity (RPMI-8226 [1]) was “inactive”, the Activity (NCI-H929 [2]) was “inactive” and the viability at […] (NCI-H929 [3]) was 35.4%. It also gave an Activity (NCI-H929 [4]) of 18.7%, an Activity (NCI-H929 [5]) of 15% and an Activity (RPMI-8226 [6]) of 0.31%. For the same molecule, the Activity [7] was “Non-Toxic”, the Activity (RPMI-8226 [8]) was 1% and the Activity [9] was “Non-Toxic”. For the same molecule, the Activity (RPMI-8226 [10]) was 7.86%, the Activity [11] was “Non-Toxic” and the hemolysis at 3 h, 100 µM [12] was 0%. The Activity (RPMI-8226 [13]) was “Active”, the IC50 (Platelet) was 0.45 µM and the Activity [14] was “Non-Toxic”. It also gave an Activity (RPMI-8226 [15]) of 56%, an Activity (NCI-H929 [16]) of 0% and a viability at […] (NCI-H929 [17]) of 81.1%. For the same molecule, the Activity (NCI-H929 [18]) was 64.3%, the PT (Plasma [19]) was 14.2 s and the Activity (NCI-H929 [20]) was 0.24%. The Activity (NCI-H929 [21]) was 15%, the Activity (NCI-H929 [22]) was 0.13% and the APTT (Plasma [23]) was 50.8 s. For the same molecule, the Activity (RPMI-8226 [24]) was “inactive”, the Activity (NCI-H929 [25]) was 0% and the Activity (RPMI-8226 [26]) was “Active”. For the same molecule, the Activity (RPMI-8226 [27]) was “Active”, the Activity (NCI-H929 [28]) was “inactive” and the Activity [29] was “Non-Toxic”. For the same molecule, the viability at […] (RPMI-8226 [30]) was 91.8%, the Activity (RPMI-8226 [31]) was 0.006% and the Activity [32] was “Non-Toxic”.
